Measured values as given in patent US20230278995A1, “1,3,4-OXADIAZOLE DERIVATIVE COMPOUNDS AS HISTONE DEACETYLASE 6 INHIBITOR, AND THE PHARMACEUTICAL COMPOSITION COMPRISING THE SAME” (CHONG KUN DANG PHARMACEUTICAL CORP., priority 2020, published 2023).

Key:
human recombinant HDAC1 = molecular target: T1, human recombinant HDAC1 (Homo sapiens, UniProt Q13547); test: HDAC enzyme activity inhibition assay (HDAC Fluorimetric Drug Discovery Kit), HDAC1; type: biochemical; details: human recombinant HDAC1, Fluor de Lys-SIRT1 substrate, 30° C. 60 minutes
T1 construct: purchased Enzo Life Sciences, Inc. BML-SE456
T1 sequence (Q13547 whole entry): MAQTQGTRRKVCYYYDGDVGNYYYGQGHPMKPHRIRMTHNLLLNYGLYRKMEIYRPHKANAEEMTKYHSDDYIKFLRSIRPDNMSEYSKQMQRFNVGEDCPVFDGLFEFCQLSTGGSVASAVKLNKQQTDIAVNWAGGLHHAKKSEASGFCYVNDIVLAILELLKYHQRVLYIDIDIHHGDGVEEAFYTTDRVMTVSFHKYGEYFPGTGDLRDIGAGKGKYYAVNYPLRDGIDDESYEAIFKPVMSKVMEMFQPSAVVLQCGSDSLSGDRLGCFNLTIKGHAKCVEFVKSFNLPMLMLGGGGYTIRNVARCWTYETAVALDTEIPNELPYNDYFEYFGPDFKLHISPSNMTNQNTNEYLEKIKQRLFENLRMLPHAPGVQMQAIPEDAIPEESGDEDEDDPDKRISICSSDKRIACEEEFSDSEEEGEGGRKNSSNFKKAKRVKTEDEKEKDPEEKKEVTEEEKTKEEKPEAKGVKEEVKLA
Outline: (§1)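 Recombinant human HDAC1 or HDAC6 (0.3 μg) reacted with 10 μM Fluor de Lys-SIRT1 substrate at 30 °C for 60 min. Developer added for 30 min, then fluorescence read at Ex 360/Em 460.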

human recombinant HDAC6 = molecular target: T2, human recombinant HDAC6 (Homo sapiens, UniProt Q9UBN7); test: HDAC enzyme activity inhibition assay (HDAC Fluorimetric Drug Discovery Kit), HDAC6; type: biochemical; details: for HDAC6 selectivity (fold): HDAC1 vs HDAC6; for IC50: human recombinant HDAC6, same protocol as HDAC1
T2 construct: purchased Calbiochem Inc. 382180
T2 sequence (Q9UBN7 1-1215): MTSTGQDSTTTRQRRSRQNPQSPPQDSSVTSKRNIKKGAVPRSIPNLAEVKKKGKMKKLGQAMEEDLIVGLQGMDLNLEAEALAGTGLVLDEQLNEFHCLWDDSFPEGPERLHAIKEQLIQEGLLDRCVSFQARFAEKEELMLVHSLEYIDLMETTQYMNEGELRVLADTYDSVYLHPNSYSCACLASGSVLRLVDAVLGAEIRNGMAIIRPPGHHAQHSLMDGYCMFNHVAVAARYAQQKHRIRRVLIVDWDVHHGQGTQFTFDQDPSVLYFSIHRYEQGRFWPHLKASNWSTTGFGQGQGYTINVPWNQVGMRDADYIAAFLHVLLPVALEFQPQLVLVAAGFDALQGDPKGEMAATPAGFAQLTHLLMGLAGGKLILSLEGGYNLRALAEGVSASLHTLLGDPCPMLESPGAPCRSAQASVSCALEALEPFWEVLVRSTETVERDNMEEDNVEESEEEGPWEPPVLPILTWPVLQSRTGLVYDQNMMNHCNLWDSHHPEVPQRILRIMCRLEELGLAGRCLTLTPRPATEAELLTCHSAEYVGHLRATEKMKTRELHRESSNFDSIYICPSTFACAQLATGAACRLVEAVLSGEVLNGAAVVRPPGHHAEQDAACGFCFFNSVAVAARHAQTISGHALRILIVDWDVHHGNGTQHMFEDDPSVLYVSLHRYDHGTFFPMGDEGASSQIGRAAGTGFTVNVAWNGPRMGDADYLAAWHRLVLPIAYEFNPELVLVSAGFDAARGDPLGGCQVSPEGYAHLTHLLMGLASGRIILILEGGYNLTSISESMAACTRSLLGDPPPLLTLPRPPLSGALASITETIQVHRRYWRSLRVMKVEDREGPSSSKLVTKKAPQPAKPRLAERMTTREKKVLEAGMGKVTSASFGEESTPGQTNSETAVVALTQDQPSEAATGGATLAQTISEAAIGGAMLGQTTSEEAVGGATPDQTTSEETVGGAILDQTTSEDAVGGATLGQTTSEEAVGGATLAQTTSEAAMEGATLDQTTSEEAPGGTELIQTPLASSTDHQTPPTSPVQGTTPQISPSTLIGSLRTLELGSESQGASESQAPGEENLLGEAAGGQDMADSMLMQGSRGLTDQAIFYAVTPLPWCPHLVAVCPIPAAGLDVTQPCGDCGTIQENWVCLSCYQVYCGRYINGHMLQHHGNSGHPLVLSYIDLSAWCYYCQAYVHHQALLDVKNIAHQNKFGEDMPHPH
Outline: as §1

Structure (SMILES) | IC50 (human recombinant HDAC1) [nM] | HDAC6 selectivity (fold) (human recombinant HDAC6) | IC50 (human recombinant HDAC6) [nM]
CC(C)N1CCC(F)(C(=O)N(Cc2ccc(-c3nnc(C(F)F)o3)cn2)c2ccccc2)CC1 [Compound 2952, N-((5-(5-(difluoromethyl)-1,3,4-oxadiazol-2-yl)pyridin-2-yl)methyl)-4-fluoro-1-isopropyl-N-phenylpiperidine-4-carboxamide] | > 50000 | 504 fold | 99.1
CN1CCC(F)(C(=O)N(Cc2ccc(-c3nnc(C(F)F)o3)cn2)c2ccccc2)CC1 [Compound 2951, N-((5-(5-(difluoromethyl)-1,3,4-oxadiazol-2-yl)pyridin-2-yl)methyl)-4-fluoro-1-methyl-N-phenylpiperidine-4-carboxamide] | 42600 | 569 fold | 74.7
CCN1CC(N2CC(F)(C(=O)N(Cc3ccc(-c4nnc(C(F)F)o4)cn3)c3ccccc3)C2)C1 [Compound 3106, N-((5-(5-(difluoromethyl)-1,3,4-oxadiazol-2-yl)pyridin-2-yl)methyl)-1′-ethyl-3-fluoro-N-phenyl-[1,3′-biazetidine]-3-carboxamide] | > 50000 | 1,262 fold | 39.6
CN(C)CCCC(=O)N1CC(F)(C(=O)N(Cc2ccc(-c3nnc(C(F)F)o3)cn2)c2ccccc2)C1 [Compound 3007, N-((5-(5-(difluoromethyl)-1,3,4-oxadiazol-2-yl)pyridin-2-yl)methyl)-1-(4-(dimethylamino)butanoyl)-3-fluoro-N-phenylazetidine-3-carboxamide] | > 50000 | 1,945 fold | 25.7
CCN1CCC(F)(C(=O)N(Cc2ccc(-c3nnc(C(F)F)o3)cc2F)c2ccccc2)CC1 [Compound 2867, N-(4-(5-(difluoromethyl)-1,3,4-oxadiazol-2-yl)-2-fluorobenzyl)-1-ethyl-4-fluoro-N-phenylpiperidine-4-carboxamide] | > 20000 | 97 fold | 204
O=C(N(Cc1ccc(-c2nnc(C(F)F)o2)cn1)c1ccccc1)C1(F)CCN(C2CCC2)CC1 [Compound 2953, 1-cyclobutyl-N-((5-(5-(difluoromethyl)-1,3,4-oxadiazol-2-yl)pyridin-2-yl)methyl)-4-fluoro-N-phenylpiperidine-4-carboxamide] | 44000 | 543 fold | 80.9
O=C(N(Cc1ccc(-c2nnc(C(F)F)o2)cn1)c1ccccc1)C1(F)CCN(C2CC3(COC3)C2)CC1 [Compound 2995, N-((5-(5-(difluoromethyl)-1,3,4-oxadiazol-2-yl)pyridin-2-yl)methyl)-4-fluoro-N-phenyl-1-(2-oxaspiro[3.3]heptan-6-yl)piperidine-4-carboxamide] | > 50000 | 600 fold | 83.3
CC(=O)N1CC(F)(C(=O)N(Cc2ccc(-c3nnc(C(F)F)o3)cn2)c2ccccc2)C1 [Compound 3152, 1-acetyl-N-((5-(5-(difluoromethyl)-1,3,4-oxadiazol-2-yl)pyridin-2-yl)methyl)-3-fluoro-N-phenylazetidine-3-carboxamide] | > 50000 | 1,377 fold | 36.3

Next, values leading:

IC50 (human recombinant HDAC1) [nM] | HDAC6 selectivity (fold) (human recombinant HDAC6) | IC50 (human recombinant HDAC6) [nM] | Structure (SMILES)
> 50000 | 2,808 fold | 17.8 | CC(=O)N1CC(F)(C(=O)N(Cc2ccc(-c3nnc(C(F)F)o3)cn2)c2cccc(F)c2)C1 [Compound 3164, 1-acetyl-N-((5-(5-(difluoromethyl)-1,3,4-oxadiazol-2-yl)pyridin-2-yl)methyl)-3-fluoro-N-(3-fluorophenyl)azetidine-3-carboxamide]
> 50000 | 875 fold | 57.1 | O=C(N(Cc1ccc(-c2nnc(C(F)F)o2)cn1)c1ccccc1)C1(F)CN(CC2CCOCC2)C1 [Compound 3216]
> 50000 | 226 fold | 221 | CC(C)N1CCC(F)(C(=O)N(Cc2ccc(-c3nnc(C(F)F)o3)cc2F)c2ccccc2)CC1 [Compound 3437, N-(4-(5-(difluoromethyl)-1,3,4-oxadiazol-2-yl)-2-fluorobenzyl)-4-fluoro-1-isopropyl-N-phenylpiperidine-4-carboxamide]
> 50000 | 1,466 fold | 34.1 | O=C(C1CCCC1)N1CC(F)(C(=O)N(Cc2ccc(-c3nnc(C(F)F)o3)cn2)c2ccccc2)C1 [Compound 3160, 1-(cyclopentanecarbonyl)-N-((5-(5-(difluoromethyl)-1,3,4-oxadiazol-2-yl)pyridin-2-yl)methyl)-3-fluoro-N-phenylazetidine-3-carboxamide]
> 50000 | 154 fold | 324 | CS(=O)(=O)N1CCC(F)(C(=O)N(Cc2ccc(-c3nnc(C(F)F)o3)cc2F)c2ccccc2)CC1 [Compound 3442, N-(4-(5-(difluoromethyl)-1,3,4-oxadiazol-2-yl)-2-fluorobenzyl)-4-fluoro-1-(methylsulfonyl)-N-phenylpiperidine-4-carboxamide]
20400 | 771 fold | 26.5 | O=C(N(Cc1ccc(-c2nnc(C(F)F)o2)cn1)c1cccc(F)c1)C1(F)CN(C2CCN(C3CCC3)CC2)C1 [Compound 3405, 1-(1-cyclobutylpiperidin-4-yl)-N-((5-(5-(difluoromethyl)-1,3,4-oxadiazol-2-yl)pyridin-2-yl)methyl)-3-fluoro-N-(3-fluorophenyl)azetidine-3-carboxamide]
> 50000 | 988 fold | 50.6 | CN1CC(N2CC(F)(C(=O)N(Cc3ccc(-c4nnc(C(F)F)o4)cn3)c3cccc(F)c3)C2)C1 [Compound 3219, N-((5-(5-(difluoromethyl)-1,3,4-oxadiazol-2-yl)pyridin-2-yl)methyl)-3-fluoro-N-(3-fluorophenyl)-1′-methyl-[1,3′-biazetidine]-3-carboxamide]
> 50000 | 1,388 fold | 36 | O=C(N(Cc1ccc(-c2nnc(C(F)F)o2)cn1)c1cccc(F)c1)C1(F)CN(C2CN(C3COC3)C2)C1 [Compound 3395, N-((5-(5-(difluoromethyl)-1,3,4-oxadiazol-2-yl)pyridin-2-yl)methyl)-3-fluoro-N-(3-fluorophenyl)-1′-(oxetan-3-yl)-[1,3′-biazetidine]-3-carboxamide]
> 50000 | 178 fold | 280 | CC(C)C(=O)N1CCC(F)(C(=O)N(Cc2ccc(-c3nnc(C(F)F)o3)cc2F)c2ccccc2)CC1 [Compound 3440, N-(4-(5-(difluoromethyl)-1,3,4-oxadiazol-2-yl)-2-fluorobenzyl)-4-fluoro-1-isobutyryl N-phenylpiperidine-4-carboxamide]
> 50000 | 1,886 fold | 26.5 | O=C(N(Cc1ccc(-c2nnc(C(F)F)o2)cn1)c1cccc(F)c1)C1(F)CN(C2CN(C3CCC3)C2)C1 [Compound 3394, 1′-cyclobutyl-N-((5-(5-(difluoromethyl)-1,3,4-oxadiazol-2-yl)pyridin-2-yl)methyl)-3-fluoro-N-(3-fluorophenyl)-[1,3′-biazetidine]-3-carboxamide]
26600 | 734 fold | 36.2 | O=C(N(Cc1ccc(-c2nnc(C(F)F)o2)cn1)c1cccc(F)c1)C1(F)CN(C2CCN(C3COC3)CC2)C1 [Compound 3406, N-((5-(5-(difluoromethyl)-1,3,4-oxadiazol-2-yl)pyridin-2-yl)methyl)-3-fluoro-N-(3-fluorophenyl)-1-(1-(oxetan-3-yl)piperidin-4-yl)azetidine-3-carboxamide]
> 50000 | 1,326 fold | 37.7 | CC(C)N1CC(N2CC(F)(C(=O)N(Cc3ccc(-c4nnc(C(F)F)o4)cn3)c3cccc(F)c3)C2)C1 [Compound 3224]
